Test results: patent EP0655439A2, “5,6-Bicyclic glycoprotein IIb IIIa antagonists useful in inhibition of platelet aggregation” (ELI LILLY AND COMPANY, priority 1993, dated 1995)

Key:
GPIIb-IIIa = biological target: T1, GPIIb-IIIa (Homo sapiens, UniProt P05106+P08514); test: GPIIb-IIIa ELISA assay (inhibition of fibrinogen binding to immobilized receptor); settings: purified platelet GPIIb-IIIa coated on plates; biotinylated fibrinogen 10 nM; 3 hours at 25 °C
T1 construct: Purified platelet GPIIb-IIIa receptor was prepared as described by Fitzgerald, L.A., et al; from tissue; host or cells: platelets (purified by the method of Fitzgerald et al., Anal Biochem 1985)
T1 sequence (P08514 32-887 limits assumed): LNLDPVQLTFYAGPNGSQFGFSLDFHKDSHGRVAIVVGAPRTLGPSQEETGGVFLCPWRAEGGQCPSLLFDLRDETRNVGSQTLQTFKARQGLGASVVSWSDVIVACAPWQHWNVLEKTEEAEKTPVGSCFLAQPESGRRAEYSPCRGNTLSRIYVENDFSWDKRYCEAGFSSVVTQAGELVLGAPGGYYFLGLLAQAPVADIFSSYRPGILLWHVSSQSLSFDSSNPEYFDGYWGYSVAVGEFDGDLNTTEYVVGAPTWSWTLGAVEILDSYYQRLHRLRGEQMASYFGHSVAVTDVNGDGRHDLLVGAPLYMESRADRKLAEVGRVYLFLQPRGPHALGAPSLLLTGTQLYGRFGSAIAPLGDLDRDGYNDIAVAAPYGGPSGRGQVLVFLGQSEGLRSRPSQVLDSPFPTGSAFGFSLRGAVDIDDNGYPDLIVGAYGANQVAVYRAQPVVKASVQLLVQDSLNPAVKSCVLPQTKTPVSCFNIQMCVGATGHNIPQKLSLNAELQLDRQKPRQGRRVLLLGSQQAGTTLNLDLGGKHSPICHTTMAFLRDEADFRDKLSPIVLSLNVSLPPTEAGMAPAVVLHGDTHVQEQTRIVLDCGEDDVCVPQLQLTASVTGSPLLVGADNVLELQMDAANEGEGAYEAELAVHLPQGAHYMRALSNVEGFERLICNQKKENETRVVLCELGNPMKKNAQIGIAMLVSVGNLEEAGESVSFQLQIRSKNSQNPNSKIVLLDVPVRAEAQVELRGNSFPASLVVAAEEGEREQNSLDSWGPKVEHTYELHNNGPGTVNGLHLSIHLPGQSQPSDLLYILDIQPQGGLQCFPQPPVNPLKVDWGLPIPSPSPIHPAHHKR
T1 sequence (P08514 891-1039 partner limits assumed): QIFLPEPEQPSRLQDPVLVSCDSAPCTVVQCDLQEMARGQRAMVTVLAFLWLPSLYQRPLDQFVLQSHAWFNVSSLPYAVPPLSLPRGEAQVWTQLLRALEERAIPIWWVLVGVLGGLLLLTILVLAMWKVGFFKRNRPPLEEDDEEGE
T1 sequence (P05106 27-788): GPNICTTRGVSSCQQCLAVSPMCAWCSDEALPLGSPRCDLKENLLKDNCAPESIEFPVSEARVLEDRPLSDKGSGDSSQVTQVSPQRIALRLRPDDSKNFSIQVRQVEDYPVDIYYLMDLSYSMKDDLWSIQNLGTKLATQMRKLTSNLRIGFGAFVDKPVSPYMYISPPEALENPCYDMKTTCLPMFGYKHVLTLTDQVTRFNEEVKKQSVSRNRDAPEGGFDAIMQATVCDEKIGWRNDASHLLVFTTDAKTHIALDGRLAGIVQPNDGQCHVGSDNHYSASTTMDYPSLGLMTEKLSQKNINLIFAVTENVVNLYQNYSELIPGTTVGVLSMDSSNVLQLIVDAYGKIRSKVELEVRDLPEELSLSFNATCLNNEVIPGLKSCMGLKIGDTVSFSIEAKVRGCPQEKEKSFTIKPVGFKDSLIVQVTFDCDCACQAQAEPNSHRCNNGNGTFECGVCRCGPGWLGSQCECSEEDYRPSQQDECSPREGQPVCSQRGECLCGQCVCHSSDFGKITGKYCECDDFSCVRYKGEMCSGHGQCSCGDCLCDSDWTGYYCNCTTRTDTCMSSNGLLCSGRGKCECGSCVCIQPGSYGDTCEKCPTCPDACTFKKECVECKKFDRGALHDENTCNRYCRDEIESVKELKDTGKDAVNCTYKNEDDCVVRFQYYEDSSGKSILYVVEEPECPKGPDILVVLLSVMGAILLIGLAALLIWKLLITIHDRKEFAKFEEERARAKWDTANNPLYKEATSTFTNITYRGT
Description: In the following assay, GPllb-Illa is prepared in purified form, by a method such as described by Fitzgerald, L.A., et al., Anal Biochem (1985) 151:159-177,(the disclosure of which is incorporated herein by reference). GPIIb-IIIa is coated onto microtiter plates. The coated support is then contacted with fibrinogen and with the test material and incubated for a sufficient time to permit maximal binding of fibrinogen to the immobilized GPIIb-IIIa. Fibrinogen is typically provided at a concentration of about 5-50 nM and the test material can, if desired, be added at a series of dilution. Typical incubations are 2-4 hr at 25°C, the time and temperature being interdependent.
After incubation, the solution containing the fibrinogen and test material is removed and the level of binding of fibrinogen measured by quantitating bound fibrinogen to GPllb-llla. Any suitable means of detection may be used, but it is convenient to employ labeled fibrinogen, for example using biotinylated labels. Such methods are well known in the art.
Purified platelet GPIIb-IIIa receptor was prepared as described by Fitzgerald, L.A., et al., Anal Biochem (1985) 151:169-177. Vitronectin receptor was prepared as described by Smith, J.W., J. Bioi Chem (1988) 263:18726-18731. After purification, the receptors were stored in 0.1% Triton X-100 at 0.1-1.0 mg/ml.
The receptors were coated to the wells of 96-well flat-bottom ELISA plates (Linbro EIA-Plus microtiter plate, Flow Laboratories) after diluting 1:200 with a solution of 20 mM Tris-HCI, 150 MM NaCi, 1 mM CaCl2, pH 7.4, to reduce the Triton x-100 concentration to below its critical micellar concentration and adding an aliquot of 100 ul to each well. The wells were all allowed to incubate overnight at 4°C, and then aspirated to dryness. Additional sites were blocked by the addition of bovine serum albumin (BSA) at 35 mg/ml in the above buffer for 2 hours at 30°C to prevent nonspecific binding. The wells were then washed once with binding buffer ([…] Tris-HCI, 100 mM Nacl 2 mM CaC12, 1 mg/ml BSA).
The corresponding ligands (fibrinogen, von Willebrand Factor, orvitronectin) were conjugated to biotin using commercially available reagents and standard protocols. The labeled ligands were added to the receptor- coated wells at final concentration of 10 nM (100 ul/well) and incubated for 3 hours at 25 °C in the presence or absence of the test samples. After incubation, the wells are aspirated to dryness and bound ligand is quan- titated.
The bound protein is detected by the addition of antibiotin antibody conjugated to alkaline phosphatase followed by addition of substrate (p-nitrcphenyl phosphate), and determination of the optical density of each well at 405 nM. Decreased color development is observed in wells incubated with test samples which inhibit binding of ligand to receptor.

[1] = test system: human platelet-rich plasma; test: Platelet aggregation assay (PRP), Aggregation-Human/PRP/ADP; format: cell-based; settings: 1 min, 1 minute at 37°C before aggregating agent, most often ADP 5 µM
Description: In addition to the ELISA GPllb-Illa assay previously described the Aggregation-Human/PRP/ADP Assay is useful for evaluating therapeutic compounds.
Platelet-rich plasma was prepared from healthy human volunteers for use in determining inhibition of platelet aggregation by the compounds. Blood was collected via a 21 gauge butterfly cannula, using a two-syringe technique into 1/10 volume of 10% trisodium citrate.
Platelet-rich plasma was prepared at room temperature by centrifugation of the citrated whole blood at 100 x g for 15 minutes. The platelet rich plasma contained approximately 200-400,000 platelets/µl.
Platelet-poor plasma was prepared by centrifugation of citrated whole blood at 12,000 x g for 2 minutes.
Platelet aggregation was assayed in a 4-channel platelet aggregation profiler (PAP-4, Biodata, Hatboro, PA) according to the manufacturers directions. Inhibition of platelet aggregation was studied by adding varying amounts of test compounds to stirred human platelet-rich plasma. Specifically, the human platelet-rich plasma was incubated with test compounds for 1 minute at 37°C prior to the addition of a variety of aggregating agents most often ADP 5 µM, but also 1 µg/ml collagen, 1 µM U46619 or 1 µM platelet activating factor.

SMILES	IC50 (GPIIb-IIIa) [µM]	IC50 [1] [µM]
N=C(N)c1ccc2[nH]c(C(=O)NCc3ccc(CCC(=O)O)cc3)cc2c1 [Example 9]	4.45	40
CCCC(CC1CCC(CNC(=O)c2cc3cc(C(=N)N)ccc3[nH]2)CC1)C(=O)O (stereo not drawn) [Example 11]	> 100	> 100
N=C(N)c1ccc2[nH]c(C(=O)NCCOCCCC(=O)O)cc2c1 [Example 12]	1.2	9
CC(CCCCCNC(=O)c1cc2cc(C(=N)N)ccc2[nH]1)C(=O)O (stereo not drawn) [Example 13]	5.25	28
CCC(CCCCCNC(=O)c1cc2cc(C(=N)N)ccc2[nH]1)C(=O)O (stereo not drawn) [Example 14]	21.5	> 100
CCCCCCC(CCCCCNC(=O)c1cc2cc(C(=N)N)ccc2[nH]1)C(=O)O (stereo not drawn) [Example 16]	19	> 100
CC(CCCCNC(=O)c1cc2cc(C(=N)N)ccc2[nH]1)CC(=O)O (stereo not drawn) [Example 17]	0.21	2.7
CCC(CCCCNC(=O)c1cc2cc(C(=N)N)ccc2[nH]1)CC(=O)O (stereo not drawn) [Example 18]	0.33	5.8
CCCCC(CCCCNC(=O)c1cc2cc(C(=N)N)ccc2[nH]1)CC(=O)O (stereo not drawn) [Example 19]	0.63	30
CCCCCCC(CCCCNC(=O)c1cc2cc(C(=N)N)ccc2[nH]1)CC(=O)O (stereo not drawn) [Example 20]	0.8	70
CN(CCCCCCC(=O)O)C(=O)c1cc2cc(C(=N)N)ccc2[nH]1 [Example 21]	0.38	2.5
N=C(N)c1ccc2oc(C(=O)NCCCCCCC(=O)O)cc2c1 [Example 22]	0.04	0.27
N=C(N)c1ccc2sc(C(=O)NCCCCCCC(=O)O)cc2c1 [Example 23]	0.74	9
N=C(N)c1ccc2cc(C(=O)NCCCCCCC(=O)O)[nH]c2c1 [Example 25]	0.13	0.8
N=C(N)c1ccc2[nH]c(C(=O)NCCCCCCC(=O)O)cc2c1 [Example 26]	0.7	2.7
N=C(N)c1ccc2[nH]c(C(=O)NCCCCC(=O)O)cc2c1 [Example 27]		100
N=C(N)c1ccc2[nH]c(C(=O)NCCCCCC(=O)O)cc2c1 [Example 28]	42.7	100
Cn1c(C(=O)NCCCCCCC(=O)O)cc2cc(C(=N)N)ccc21 [Example 30]	3	8
CC(CCCCNC(=O)c1cc2cc(C(=N)N)ccc2s1)CC(=O)O (stereo not drawn) [Example 31]	0.32	3.3
CC(CCCCNC(=O)c1cc2cc(C(=N)N)ccc2o1)CC(=O)O (stereo not drawn) [Example 32]	0.01	0.23
Cc1c(C(=O)NCCCCCCC(=O)O)[nH]c2ccc(C(=N)N)cc12 [Example 33]	2.6	5
N=C(N)c1ccc(COc2ccc3oc(C(=O)NCC(=O)O)cc3c2)cc1 [Example 35]	3.4	100
NCc1ccc2[nH]c(C(=O)NCCCCCCC(=O)O)cc2c1 [Example 36]	4.23	25
